# Data published in PMC10001202, “Preparation, Identification and Preliminary Application of the Fenvalerate Monoclonal Antibody in Six Kinds of Dark Tea” (Foods, 2023).
# Experiments:
# Format in all cases: binding, BALB/c mice
# McAb 1B6 = test: ic-ELISA cross-reactivity, McAb 1B6
# Protocol: (§1) The cross-reactivities with nine permethrin pesticides (deltamethrin, permethrin, cypermethrin, bifenthrin, fenpermethrin, fluobenzene, beta-cyhalothrin, dextrofenthrin, cypermethrin) were obtained, and McAb was determined to clarify the specificity of the monoclonal antibody prepared. The IC50 of the nine permethrin pesticides was measured by the ic-ELISA with the obtained McAb and the coating antigen. The cross-reactivity was calculated with the following Formula (1):Cross-reactivity (CR, %) = IC50 of Fen/IC50 of Fen analogs × 100%(1)
# McAb 5G2 = test: ic-ELISA cross-reactivity, McAb 5G2
# Protocol: as §1
# McAb 2A11 = test: ic-ELISA cross-reactivity, McAb 2A11
# Protocol: as §1
# [1] = IC50 of Fen/IC50 of analog × 100%
SMILES,IC50 (McAb 1B6),IC50 (McAb 5G2),IC50 (McAb 2A11),CR% (McAb 1B6; [1]),CR% (McAb 5G2; [1]),CR% (McAb 2A11; [1])
Cc1c(COC(=O)[C@@H]2[C@H](/C=C(\Cl)C(F)(F)F)C2(C)C)cccc1-c1ccccc1 (racemic) [Bifenthrin],">10,000 ng/mL",">10,000 ng/mL",">10,000 ng/mL",–,–,–
CC1(C)[C@H](C(=O)O[C@H](C#N)c2cccc(Oc3ccccc3)c2)[C@@H]1/C=C(\Cl)C(F)(F)F (racemic) [Lambda-cyhalothrin],">10,000 ng/mL",">10,000 ng/mL",">10,000 ng/mL",–,–,–
CC1(C)C(C=C(Cl)Cl)C1C(=O)OC(C#N)c1ccc(F)c(Oc2ccccc2)c1 (stereo not drawn) [Cyfluthrin],">10,000 ng/mL",">10,000 ng/mL",">10,000 ng/mL",–,–,–
CC1(C)C(C=C(Cl)Cl)C1C(=O)OC(C#N)c1cccc(Oc2ccccc2)c1 (stereo not drawn) [Cypermethrin],">10,000 ng/mL",">10,000 ng/mL",">10,000 ng/mL",–,–,–
CC(C)=CC1C(C(=O)OCc2cccc(Oc3ccccc3)c2)C1(C)C [D-Phenothrin],">10,000 ng/mL",">10,000 ng/mL",">10,000 ng/mL",–,–,–
CC1(C)[C@H](C(=O)O[C@H](C#N)c2cccc(Oc3ccccc3)c2)[C@@H]1C=C(Br)Br [Deltamethrin],">10,000 ng/mL",">10,000 ng/mL",">10,000 ng/mL",–,–,–
CC1(C)C(C(=O)OC(C#N)c2cccc(Oc3ccccc3)c2)C1(C)C (stereo not drawn) [Fenpropathrin],">10,000 ng/mL",">10,000 ng/mL",">10,000 ng/mL",–,–,–
CC(C)C(C(=O)OC(C#N)c1cccc(Oc2ccccc2)c1)c1ccc(Cl)cc1 (stereo not drawn) [Fenvalerate],36.6 ng/mL,21.65 ng/mL,24.29 ng/mL,100%,100%,100%
CC1(C)C(C=C(Cl)c2ccc(Cl)cc2)C1C(=O)OC(C#N)c1ccc(F)c(Oc2ccccc2)c1 (stereo not drawn) [Flumethrin],">10,000 ng/mL",">10,000 ng/mL",">10,000 ng/mL",–,–,–
CC1(C)C(C=C(Cl)Cl)C1C(=O)OCc1cccc(Oc2ccccc2)c1 (stereo not drawn) [Permethrin],">10,000 ng/mL",">10,000 ng/mL",">10,000 ng/mL",–,–,–
